Assay results taken from patent US20230085307A1, “PYRIDAZINONE COMPOUND AND HERBICIDE” (NISSAN CHEMICAL CORPORATION, priority 2019, published 2023).

Columns and labels:
[1] = tested on: redroot pigweed; test: Test Example 5: herbicidal effect by foliage application, plastic box (Table 20, symbol N); type: in vivo, redroot pigweed (Amaranthus retroflexus); conditions: foliage application, 320 g/ha, evaluated three weeks after application
In short: (§1)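 Plants sown in sterilized diluvial soil and grown 14 days in a greenhouse at 25° C to 30° C, then sprayed on the foliage with the compound's emulsion diluted in water to a predetermined herbicide amount. Injury to weeds and crops scored three weeks after application on a visual rating scale.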

[2] = tested on: late watergrass; test: Test Example 1: herbicidal activity, application before weed generation under submerged conditions (Table 16, symbol A); type: in vivo, late watergrass (Echinochloa oryzicola); conditions: 320 g/ha applied herbicide
In short: (§2)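 Submerged Wagner pots (alluvial soil, 4 cm water) sown with weed seeds and planted with 2.5-leaf rice seedlings; emulsifiable concentrate diluted in water applied to water surface on sowing day. Held in greenhouse at 25-30 °C; injury scored 0-5 by herbicidal rate after three weeks.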

[3] = tested on: wild oat; test: Test Example 5: herbicidal effect by foliage application, plastic box (Table 20, symbol I); type: in vivo, wild oat (Avena fatua); conditions: foliage application, 320 g/ha, evaluated three weeks after application
In short: as §1

[4] = tested on: windgrass; test: Test Example 4: herbicidal effect by soil treatment (Table 19, symbol L); type: in vivo, windgrass (Apera spica-venti); conditions: 320 g/ha
In short: (§3)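 Seeds were sown in sterilized diluvial soil and covered with about 1.5 cm of soil. An emulsion formulation diluted with water to a predetermined herbicide amount was sprayed evenly onto the soil surface. Plants grew in a greenhouse at 25° C. to 30° C., and the effect was scored three weeks after application using criteria from an earlier test.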

[5] = tested on: persian speedwell; test: Test Example 5: herbicidal effect by foliage application, plastic box (Table 20, symbol R); type: in vivo, Persian speedwell (Veronica persica); conditions: foliage application, 320 g/ha, evaluated three weeks after application
In short: as §1

[6] = tested on: Italian ryegrass; test: Test Example 4: herbicidal effect by soil treatment (Table 19, symbol K); type: in vivo, Italian ryegrass (Lolium multiflorum); conditions: 320 g/ha
In short: as §3

[7] = tested on: southern crabgrass; test: Test Example 4: herbicidal effect by soil treatment (Table 19, symbol F); type: in vivo, southern crabgrass (Digitaria ciliaris); conditions: 320 g/ha
In short: as §3

[8] = tested on: wild oat; test: Test Example 4: herbicidal effect by soil treatment (Table 19, symbol I); type: in vivo, wild oat (Avena fatua); conditions: 320 g/ha
In short: as §3

[9] = tested on: blackgrass; test: Test Example 5: herbicidal effect by foliage application, plastic box (Table 20, symbol J); type: in vivo, blackgrass (Alopecurus myosuroides); conditions: foliage application, 320 g/ha, evaluated three weeks after application
In short: as §1

[10] = tested on: redroot pigweed; test: Test Example 4: herbicidal effect by soil treatment (Table 19, symbol N); type: in vivo, redroot pigweed (Amaranthus retroflexus); conditions: 320 g/ha
In short: as §3

[11] = tested on: oval-leafed pondweed; test: Test Example 1: herbicidal activity, application before weed generation under submerged conditions (Table 16, symbol C); type: in vivo, oval-leafed pondweed (Monochoria vaginalis); conditions: 320 g/ha applied herbicide
In short: as §2

[12] = tested on: barnyard grass; test: Test Example 4: herbicidal effect by soil treatment (Table 19, symbol H); type: in vivo, barnyard grass (Echinochloa crus-galli); conditions: 320 g/ha
In short: as §3

[13] = tested on: lambsquarters; test: Test Example 5: herbicidal effect by foliage application, plastic box (Table 20, symbol O); type: in vivo, lambsquarters (Chenopodium album); conditions: foliage application, 320 g/ha, evaluated three weeks after application
In short: as §1

[14] = tested on: green foxtail; test: Test Example 5: herbicidal effect by foliage application, plastic box (Table 20, symbol G); type: in vivo, green foxtail (Setaria viridis); conditions: foliage application, 320 g/ha, evaluated three weeks after application
In short: as §1

[15] = tested on: velvetleaf; test: Test Example 5: herbicidal effect by foliage application, plastic box (Table 20, symbol M); type: in vivo, velvetleaf (Abutilon theophrasti); conditions: foliage application, 320 g/ha, evaluated three weeks after application
In short: as §1

[16] = tested on: lambsquarters; test: Test Example 4: herbicidal effect by soil treatment (Table 19, symbol O); type: in vivo, lambsquarters (Chenopodium album); conditions: 320 g/ha
In short: as §3

[17] = tested on: blackgrass; test: Test Example 4: herbicidal effect by soil treatment (Table 19, symbol J); type: in vivo, blackgrass (Alopecurus myosuroides); conditions: 320 g/ha
In short: as §3

[18] = tested on: windgrass; test: Test Example 5: herbicidal effect by foliage application, plastic box (Table 20, symbol L); type: in vivo, windgrass (Apera spica-venti); conditions: foliage application, 320 g/ha, evaluated three weeks after application
In short: as §1

[19] = tested on: Italian ryegrass; test: Test Example 5: herbicidal effect by foliage application, plastic box (Table 20, symbol K); type: in vivo, Italian ryegrass (Lolium multiflorum); conditions: foliage application, 320 g/ha, evaluated three weeks after application
In short: as §1

[20] = tested on: barnyard grass; test: Test Example 3: herbicidal effect by foliage application, Wagner pot (Table 18, symbol H); type: in vivo, barnyard grass (Echinochloa crus-galli); conditions: 320 g/ha
In short: (§4)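 Plants were sown in alluvial soil held under 0.1–0.5 cm standing water and grown 14 days in a greenhouse at 25–30 °C. An emulsifiable formulation, water-diluted to the set dose, was then sprayed onto the foliage, and effects were scored three weeks later using previously defined criteria.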

[21] = tested on: false cleavers; test: Test Example 4: herbicidal effect by soil treatment (Table 19, symbol Q); type: in vivo, false cleavers (Galium spurium); conditions: 320 g/ha
In short: as §3

[22] = tested on: velvetleaf; test: Test Example 4: herbicidal effect by soil treatment (Table 19, symbol M); type: in vivo, velvetleaf (Abutilon theophrasti); conditions: 320 g/ha
In short: as §3

[23] = tested on: Chinese sprangletop; test: Test Example 3: herbicidal effect by foliage application, Wagner pot (Table 18, symbol D); type: in vivo, chinese sprangletop (Leptochloa chinensis); conditions: 320 g/ha
In short: as §4

[24] = tested on: chickweed; test: Test Example 5: herbicidal effect by foliage application, plastic box (Table 20, symbol P); type: in vivo, common chickweed (Stellaria media); conditions: foliage application, 320 g/ha, evaluated three weeks after application
In short: as §1

[25] = tested on: rice flat sedge; test: Test Example 3: herbicidal effect by foliage application, Wagner pot (Table 18, symbol E); type: in vivo, rice flat sedge (Cyperus iria); conditions: 320 g/ha
In short: as §4

[26] = tested on: green foxtail; test: Test Example 4: herbicidal effect by soil treatment (Table 19, symbol G); type: in vivo, green foxtail (Setaria viridis); conditions: 320 g/ha
In short: as §3

[27] = tested on: southern crabgrass; test: Test Example 5: herbicidal effect by foliage application, plastic box (Table 20, symbol F); type: in vivo, southern crabgrass (Digitaria ciliaris); conditions: foliage application, 320 g/ha, evaluated three weeks after application
In short: as §1

[28] = tested on: barnyard grass; test: Test Example 5: herbicidal effect by foliage application, plastic box (Table 20, symbol H); type: in vivo, barnyard grass (Echinochloa crus-galli); conditions: foliage application, 320 g/ha, evaluated three weeks after application
In short: as §1

[29] = tested on: Japanese bulrush; test: Test Example 1: herbicidal activity, application before weed generation under submerged conditions (Table 16, symbol B); type: in vivo, Japanese bulrush (Schoenoplectus juncoides); conditions: 320 g/ha applied herbicide
In short: as §2

In the case of `CCCC(=O)Oc1c(C)nn(C)c(=O)c1-c1c(-c2ccc(Cl)c(Cl)c2)sc2ccc(F)cc12` [2-082], the “herbicidal effect on N: redroot pigweed” value [1] is reported as 3 (Herbicidal rate of 40% or more and less than 70%), the “Herbicidal effect on A: late watergrass (grade 0-5)” value [2] is reported as 2 (Herbicidal rate of 20% or more and less than 40%) and the “herbicidal effect on I: wild oat” value [3] is reported as 0 (Herbicidal rate of 5% or less (almost no effect)). The “herbicidal effect rating, L: windgrass” value [4] was 0 (Herbicidal rate of 5% or less (almost no effect)), the “herbicidal effect on R: persian speedwell” value [5] was 3 (Herbicidal rate of 40% or more and less than 70%) and the “herbicidal effect rating, K: Italian ryegrass” value [6] was 0 (Herbicidal rate of 5% or less (almost no effect)). For the same compound, the “herbicidal effect rating, F: southern crabgrass” value [7] was 1 (Herbicidal rate of 5% or more and less than 20%), the “herbicidal effect rating, I: wild oat” value [8] was 0 (Herbicidal rate of 5% or less (almost no effect)) and the “herbicidal effect on J: blackgrass” value [9] was 0 (Herbicidal rate of 5% or less (almost no effect)). For the same compound, the “herbicidal effect rating, N: redroot pigweed” value [10] was 3 (Herbicidal rate of 40% or more and less than 70%), the “Herbicidal effect on C: oval-leafed pondweed (grade 0-5)” value [11] was 0 (Herbicidal rate of 5% or less (almost no effect)) and the “herbicidal effect rating, H: barnyard grass” value [12] was 0 (Herbicidal rate of 5% or less (almost no effect)). For the same compound, the “herbicidal effect on O: lambsquarters” value [13] was 3 (Herbicidal rate of 40% or more and less than 70%), the “herbicidal effect on G: green foxtail” value [14] was 0 (Herbicidal rate of 5% or less (almost no effect)) and the “herbicidal effect on M: velvetleaf” value [15] was 3 (Herbicidal rate of 40% or more and less than 70%). For the same compound, the “herbicidal effect rating, O: lambsquarters” value [16] was 2 (Herbicidal rate of 20% or more and less than 40%), the “herbicidal effect rating, J: blackgrass” value [17] was 0 (Herbicidal rate of 5% or less (almost no effect)) and the “herbicidal effect on L: windgrass” value [18] was 0 (Herbicidal rate of 5% or less (almost no effect)). The “herbicidal effect on K: Italian ryegrass” value [19] was 0 (Herbicidal rate of 5% or less (almost no effect)), the “herbicidal effect on H (barnyard grass), rating 0-5” value [20] was 4 (Herbicidal rate of 70% or more and less than 90%) and the “herbicidal effect rating, Q: false cleavers” value [21] was 0 (Herbicidal rate of 5% or less (almost no effect)). For the same compound, the “herbicidal effect rating, M: velvetleaf” value [22] was 0 (Herbicidal rate of 5% or less (almost no effect)), the “herbicidal effect on D (Chinese sprangletop), rating 0-5” value [23] was 2 (Herbicidal rate of 20% or more and less than 40%) and the “herbicidal effect on P: chickweed” value [24] was 5 (Herbicidal rate of 90% or more (almost completely withered)). For the same compound, the “herbicidal effect on E (rice flat sedge), rating 0-5” value [25] was 4 (Herbicidal rate of 70% or more and less than 90%), the “herbicidal effect rating, G: green foxtail” value [26] was 0 (Herbicidal rate of 5% or less (almost no effect)) and the “herbicidal effect on F: southern crabgrass” value [27] was 0 (Herbicidal rate of 5% or less (almost no effect)). The “herbicidal effect on H: barnyard grass” value [28] was 0 (Herbicidal rate of 5% or less (almost no effect)) and the “Herbicidal effect on B: Japanese bulrush (grade 0-5)” value [29] was 3 (Herbicidal rate of 40% or more and less than 70%).
